Source: patent US10160755B2 (Plexxikon Inc., priority 2015, dated 2018)

How the values were obtained:
FLT3-ITD = target: T1, FLT3-ITD (Homo sapiens, UniProt P36888); test: FLT3-ITD biochemical kinase assay (AlphaScreen)
T1 construct: FLT3-ITD; Invitrogen #PV6190
T1 sequence (P36888 1-993): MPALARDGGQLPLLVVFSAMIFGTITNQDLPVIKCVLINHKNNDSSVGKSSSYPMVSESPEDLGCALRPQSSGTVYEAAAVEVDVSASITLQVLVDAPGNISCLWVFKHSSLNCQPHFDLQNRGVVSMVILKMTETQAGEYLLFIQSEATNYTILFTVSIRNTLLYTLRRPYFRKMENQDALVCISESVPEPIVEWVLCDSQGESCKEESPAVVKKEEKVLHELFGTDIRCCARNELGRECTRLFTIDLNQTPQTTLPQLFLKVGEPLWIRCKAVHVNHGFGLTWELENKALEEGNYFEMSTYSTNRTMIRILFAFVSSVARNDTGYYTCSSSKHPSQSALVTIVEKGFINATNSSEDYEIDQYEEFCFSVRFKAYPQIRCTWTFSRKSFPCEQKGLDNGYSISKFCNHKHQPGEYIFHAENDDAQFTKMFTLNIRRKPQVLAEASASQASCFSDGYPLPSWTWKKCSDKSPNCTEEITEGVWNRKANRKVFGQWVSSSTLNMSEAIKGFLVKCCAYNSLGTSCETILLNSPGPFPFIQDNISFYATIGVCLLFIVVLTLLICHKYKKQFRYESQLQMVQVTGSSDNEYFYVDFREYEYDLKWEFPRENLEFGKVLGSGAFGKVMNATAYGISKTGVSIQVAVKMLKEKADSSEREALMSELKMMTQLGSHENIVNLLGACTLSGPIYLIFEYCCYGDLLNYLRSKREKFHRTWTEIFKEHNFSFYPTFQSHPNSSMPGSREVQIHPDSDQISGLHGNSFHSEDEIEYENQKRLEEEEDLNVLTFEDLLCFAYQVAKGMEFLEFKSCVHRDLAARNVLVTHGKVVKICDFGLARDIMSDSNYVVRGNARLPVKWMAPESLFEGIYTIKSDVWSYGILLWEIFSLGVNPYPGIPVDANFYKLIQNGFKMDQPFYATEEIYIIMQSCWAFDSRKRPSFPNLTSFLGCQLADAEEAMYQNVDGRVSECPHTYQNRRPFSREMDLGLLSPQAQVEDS
How it was run: (§1)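 AlphaScreen read-out of tyrosine phosphorylation of a 30 nM biotinylated poly(Glu4-Tyr) substrate, captured on streptavidin donor and PY20 acceptor beads at room temperature. ATP for IC50 work was 100 μM with FLT3-ITD and 10 μM with FLT3-D835Y; reduced 580 nm proximity signal reflects kinase inhibition.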

FLT3-D835Y = target: T2, FLT3-D835Y (Homo sapiens, UniProt P36888, D835Y); test: FLT3-D835Y biochemical kinase assay (AlphaScreen)
T2 construct: purchased Invitrogen PV3967
T2 sequence (P36888 27-993 D835Y): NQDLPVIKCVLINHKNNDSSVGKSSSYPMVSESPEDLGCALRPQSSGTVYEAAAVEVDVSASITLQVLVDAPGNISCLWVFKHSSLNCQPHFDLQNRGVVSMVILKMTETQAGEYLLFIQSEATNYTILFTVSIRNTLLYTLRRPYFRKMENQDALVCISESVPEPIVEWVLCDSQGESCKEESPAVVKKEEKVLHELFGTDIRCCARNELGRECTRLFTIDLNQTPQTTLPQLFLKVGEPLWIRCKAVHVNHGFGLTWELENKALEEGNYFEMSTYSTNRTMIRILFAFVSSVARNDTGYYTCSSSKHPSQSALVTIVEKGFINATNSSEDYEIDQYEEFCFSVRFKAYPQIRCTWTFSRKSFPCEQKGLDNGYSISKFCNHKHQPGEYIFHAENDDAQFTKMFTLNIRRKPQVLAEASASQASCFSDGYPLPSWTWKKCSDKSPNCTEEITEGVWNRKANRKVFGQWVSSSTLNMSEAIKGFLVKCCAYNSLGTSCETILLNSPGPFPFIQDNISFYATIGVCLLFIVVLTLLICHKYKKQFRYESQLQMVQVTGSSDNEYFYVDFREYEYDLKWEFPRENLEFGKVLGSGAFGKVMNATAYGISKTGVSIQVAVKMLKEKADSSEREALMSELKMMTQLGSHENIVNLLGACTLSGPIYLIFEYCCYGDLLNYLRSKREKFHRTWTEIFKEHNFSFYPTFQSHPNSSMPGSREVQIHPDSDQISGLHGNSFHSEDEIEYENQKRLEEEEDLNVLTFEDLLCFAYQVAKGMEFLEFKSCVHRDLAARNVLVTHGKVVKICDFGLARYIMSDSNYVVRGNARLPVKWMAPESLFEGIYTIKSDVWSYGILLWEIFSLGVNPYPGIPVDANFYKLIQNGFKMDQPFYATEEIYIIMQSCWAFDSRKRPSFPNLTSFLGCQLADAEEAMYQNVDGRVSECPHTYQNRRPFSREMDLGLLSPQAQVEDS
How it was run: as §1

SMILES	IC50 (FLT3-ITD) [µM]	IC50 (FLT3-D835Y) [µM]
FC(F)n1cc(-c2cnc3[nH]cc(-c4ccc5ncn(C6CCCNC6)c5c4)c3c2)cn1 (stereo not shown) [P-274, 5-[1-(difluoromethyl)pyrazol-4-yl]-3-[3-(3-piperidyl)benzimidazol-5-yl]-1H-pyrrolo[2,3-b]pyridine]	0.0001 to 1	0.0001 to 1
CC(C)(C)n1cnc2ccc(-c3c[nH]c4ncc(-c5ccnc(N6CCCCC6)c5)nc34)cc21 [P-338, 7-(3-tert-butylbenzimidazol-5-yl)-2-[2-(1-piperidyl)-4-pyridyl]-5H-pyrrolo[2,3-b]pyrazine]	0.0001 to 1	0.0001 to 1
CC(C)(C)n1cnc2ccc(-c3c[nH]c4ncc(-c5cnc(O)nc5)nc34)cc21 [P-363, 5-[7-(3-tert-butylbenzimidazol-5-yl)-5H-pyrrolo[2,3-b]pyrazin-2-yl]pyrimidin-2-ol]	0.0001 to 1	0.0001 to 1
c1cc(N2CCOCC2)ncc1-c1cnc2[nH]cc(-c3ccc4ncn(C5CCCNC5)c4c3)c2n1 (stereo not shown) [P-325, 4-[5-[7-[3-(3-piperidyl)benzimidazol-5-yl]-5H-pyrrolo[2,3-b]pyrazin-2-yl]-2-pyridyl]morpholine]	0.0001 to 1	0.0001 to 1
CCN1CCN(c2ccc(-c3cnc4[nH]cc(-c5ccc6ncn(C7CCCNC7)c6c5)c4n3)cn2)CC1 (stereo not shown) [P-366, 2-[6-(4-ethylpiperazin-1-yl)-3-pyridyl]-7-[3-(3-piperidyl)benzimidazol-5-yl]-5H-pyrrolo[2,3-b]pyrazine]	0.0001 to 1	0.0001 to 1
COc1cc(C#Cc2cnc3[nH]cc(-c4ccc5ncn(C6CCCNC6)c5c4)c3n2)ccn1 (stereo not shown) [P-280, 2-((2-methoxypyridin-4-yl)ethynyl)-7-(1-(piperidin-3-yl)-1H-benzo[d]imidazol-6-yl)-5H-pyrrolo[2,3-b]pyrazine]	0.0001 to 1	0.0001 to 1
O=S1(=O)CCCCN1c1cc(-c2cnc3[nH]cc(-c4ccc5ncn(C6CCCNC6)c5c4)c3n2)ccn1 (stereo not shown) [P-310, 2-[4-[7-[3-(3-piperidyl)benzimidazol-5-yl]-5H-pyrrolo[2,3-b]pyrazin-2-yl]-2-pyridyl]thiazinane 1,1-dioxide]	0.0001 to 1	0.0001 to 1
O=S1(=O)CCCN1c1cc(-c2cnc3[nH]cc(-c4ccc5ncn(C6CCCNC6)c5c4)c3c2)ccn1 (stereo not shown) [P-311, 2-[4-[3-[3-(3-piperidyl)benzimidazol-5-yl]-1H-pyrrolo[2,3-b]pyridin-5-yl]-2-pyridyl]-1,2-thiazolidine 1,1-dioxide]	0.0001 to 1	0.0001 to 1
COc1cc(-c2cnc3[nH]cc(-c4ccc5ncn(C(C)(C)C)c5c4)c3c2)c(OC)nn1 [P-292, 1-tert-butyl-6-[5-(3,6-dimethoxypyridazin-4-yl)-1H-pyrrolo[2,3-b]pyridin-3-yl]benzimidazole]	0.0001 to 1	0.0001 to 1
CC(C)(C)n1cnc2ccc(-c3c[nH]c4ncc(-c5ccnc(N6CCCCS6(=O)=O)c5)nc34)cc21 [P-309, 2-[4-[7-(3-tert-butylbenzimidazol-5-yl)-5H-pyrrolo[2,3-b]pyrazin-2-yl]-2-pyridyl]thiazinane 1,1-dioxide]	0.0001 to 1	0.0001 to 1
CN1CCN(c2ccc(-c3cnc4[nH]cc(-c5ccc6ncn(C(C)(C)C)c6c5)c4n3)cc2)CC1 [P-341, 7-(3-tert-butylbenzimidazol-5-yl)-2-[4-(4-methylpiperazin-1-yl)phenyl]-5H-pyrrolo[2,3-b]pyrazine]	0.0001 to 1	0.0001 to 1
CC(C)(C)n1cnc2ccc(-c3c[nH]c4ncc(-c5cnc(C#N)nc5)nc34)cc21 [P-352, 5-[7-(3-tert-butylbenzimidazol-5-yl)-5H-pyrrolo[2,3-b]pyrazin-2-yl]pyrimidine-2-carbonitrile]	0.0001 to 1	0.0001 to 1
CCN1CCN(c2ccc(-c3cnc4[nH]cc(-c5ccc6ncn(C7CCCNC7)c6c5)c4n3)cc2)CC1 (stereo not shown) [P-359, 2-[4-(4-ethylpiperazin-1-yl)phenyl]-7-[3-(3-piperidyl)benzimidazol-5-yl]-5H-pyrrolo[2,3-b]pyrazine]	0.0001 to 1	0.0001 to 1

Results, then the compound that gave them:

IC50 (FLT3-ITD) [µM]	IC50 (FLT3-D835Y) [µM]	SMILES
0.0001 to 1	0.0001 to 1	c1cc(-c2cnc3[nH]cc(-c4ccc5ncn(C6CCCNC6)c5c4)c3n2)cc(N2CCCCC2)c1 (stereo not shown) [P-337, 7-[3-(3-piperidyl)benzimidazol-5-yl]-2-[3-(1-piperidyl)phenyl]-5H-pyrrolo[2,3-b]pyrazine]
0.0001 to 1	0.0001 to 1	c1cc(-c2cnc3[nH]cc(-c4ccc5ncn(C6CCCNC6)c5c4)c3c2)cc(N2CCOCC2)c1 (stereo not shown) [P-317, 4-[3-[3-[3-(3-piperidyl)benzimidazol-5-yl]-1H-pyrrolo[2,3-b]pyridin-5-yl]phenyl]morpholine]
0.0001 to 1	0.0001 to 1	CC(C)(C)n1cnc2ccc(-c3c[nH]c4ncc(-c5ccc(N6CCCCC6)cc5)nc34)cc21 [P-345, 7-(3-tert-butylbenzimidazol-5-yl)-2-[4-(1-piperidyl)phenyl]-5H-pyrrolo[2,3-b]pyrazine]
0.0001 to 1	0.0001 to 1	Cc1ncc(-c2cnc3[nH]cc(-c4ccc5ncn(C(C)(C)C)c5c4)c3n2)cn1 [P-289, 7-(3-tert-butylbenzimidazol-5-yl)-2-(2-methylpyrimidin-5-yl)-5H-pyrrolo[2,3-b]pyrazine]
0.0001 to 1	0.0001 to 1	Cc1ccc(-c2cnc3[nH]cc(-c4ccc5ncn(C(C)(C)C)c5c4)c3n2)cn1 [P-388, 7-(3-tert-butylbenzimidazol-5-yl)-2-(6-methyl-3-pyridyl)-5H-pyrrolo[2,3-b]pyrazine]
0.0001 to 1	0.0001 to 1	CC(C)(C)n1cnc2ccc(-c3c[nH]c4ncc(-c5ccc(N6CCOCC6)nc5)nc34)cc21 [P-326, 4-[5-[7-(3-tert-butylbenzimidazol-5-yl)-5H-pyrrolo[2,3-b]pyrazin-2-yl]-2-pyridyl]morpholine]
0.0001 to 1	0.0001 to 1	COc1cc(C#Cc2cnc3[nH]cc(-c4ccc5ncn(C(C)(C)C)c5c4)c3n2)ccn1 [P-279, 7-(1-(tert-butyl)-1H-benzo[d]imidazol-6-yl)-2-((2-methoxypyridin-4-yl)ethynyl)-5H-pyrrolo[2,3-b]pyrazine]
0.0001 to 1	0.0001 to 1	CC(C)(C)n1cnc2ccc(-c3c[nH]c4ncc(-c5ccc(N6CCOCC6)nc5)cc34)cc21 [P-322, 4-[5-[3-(3-tert-butylbenzimidazol-5-yl)-1H-pyrrolo[2,3-b]pyridin-5-yl]-2-pyridyl]morpholine]
0.0001 to 1	0.0001 to 1	O=S1(=O)CCCN1c1ccc(-c2cnc3[nH]cc(-c4ccc5ncn(C6CCCNC6)c5c4)c3c2)cc1 (stereo not shown) [P-319, 2-[4-[3-[3-(3-piperidyl)benzimidazol-5-yl]-1H-pyrrolo[2,3-b]pyridin-5-yl]phenyl]-1,2-thiazolidine 1,1-dioxide]
0.0001 to 1	0.0001 to 1	CC(C)(C)n1cnc2ccc(-c3c[nH]c4ncc(-c5ccc(N6CCCCC6)nc5)nc34)cc21 [P-347, 7-(1-(tert-butyl)-1H-benzo[d]imidazol-6-yl)-2-(6-(piperidin-1-yl)pyridin-3-yl)-5H-pyrrolo[2,3-b]pyrazine]
